What was measured:
[1] = 2-DG induced food intake versus saline; assay type: in vivo, mice; settings: over 4 h, compared to saline
Excerpt: FIG. 8A-B depicts the effect of Hip2 silencing on the response to 2-deoxy-D-glucose (2-DG) induced hypoglycemia.
Silencing of Hip2 was achieved by AAV vectors encoding the Hip2 small hairpin RNA (Hip2 shRNA) delivered into the VMN region of the brain via injection. AAV vectors encoding the luciferase shRNA were used as controls. […] Furthermore, reduction of Hip2 levels also had no effect on the ability of the VMN neurons to sense glucose levels in blood.

dissociated VMN neurons = experiment: Depolarization of dissociated VMN neurons by 17β-estradiol; assay type: cell-based, mice; settings: 1 nM or 10 nM
primary VMN neurons = experiment: Number of glucose sensing neurons after estradiol, calcium imaging; assay type: cell-based; settings: 1 nM, 24 h, primary VMN neurons from female rats
Protocol: Overexpression of ERα in a murine hypothalamic cell line […] (FIG. 9A-C) has led to upregulation of glucose sensing genes. In order to determine whether these effects are also dependent on estrogen, primary VMN neurons from female rats were treated 17-β-estradiol at physiological levels (1 nM) and the number of glucose sensing neurons were measured in 24 h using calcium imaging.

SMILES	food intake [1]	depolarization of cells with nuclear ERα staining (dissociated VMN neurons)	depolarization of membrane ERα-immunoreactive cells (dissociated VMN neurons; dissociated VMN neurons from postnatal female mice)	number of glucose-excited neurons (primary VMN neurons)
O=CC[C@@H](O)[C@H](O)[C@H](O)CO [2-DG, 2-deoxy-D-glucose]	significantly increased food intake			
C[C@]12CC[C@@H]3c4ccc(O)cc4CC[C@H]3[C@@H]1CC[C@@H]2O [17β-estradiol]		did not depolarize	majority of membrane ERα-immunoreactive cells depolarized	increased the number of glucose-excited neurons

— US20090214637A1, “Novel Gene Therapy Approach For Treating The Metabolic Disorder Obesity” (NEUROLOGIX, INC., priority 2007, published 2009)
